Target: T1, human M4 receptor (Homo sapiens, UniProt P08173)
T1 construct: expressed in transfected cells; host or cells: CHO cells
T1 sequence (P08173 1-479): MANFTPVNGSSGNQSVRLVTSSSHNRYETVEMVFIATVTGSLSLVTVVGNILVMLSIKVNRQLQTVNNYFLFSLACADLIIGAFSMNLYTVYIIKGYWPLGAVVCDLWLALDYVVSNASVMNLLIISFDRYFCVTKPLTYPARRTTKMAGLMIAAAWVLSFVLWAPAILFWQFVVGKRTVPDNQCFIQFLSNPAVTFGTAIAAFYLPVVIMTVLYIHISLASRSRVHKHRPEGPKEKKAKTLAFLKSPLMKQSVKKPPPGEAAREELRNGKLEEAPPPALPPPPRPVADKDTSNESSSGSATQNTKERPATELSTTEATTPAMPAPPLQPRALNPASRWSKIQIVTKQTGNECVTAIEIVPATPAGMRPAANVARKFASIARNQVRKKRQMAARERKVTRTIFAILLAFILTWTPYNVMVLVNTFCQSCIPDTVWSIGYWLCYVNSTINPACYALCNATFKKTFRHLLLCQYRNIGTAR
Assay: Radioligand ([3H]N-methylscopolamine) binding assay, membranes from CHO cells expressing human M4 receptor
Conditions: Ki against human M4 receptor; membranes from CHO cells; tritiated N-methylscopolamine 1.5 nM; read-out: K
Summary of the method: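 Ki values derive from displacement of tritiated N-methylscopolamine (1.5 nM) from human M4 receptor in CHO membranes. Membranes, radioligand and twelve-point compound series were incubated together at 37 °C for 90 minutes in pH 7.4 HEPES/NaCl/MgCl2/EDTA buffer. Rapid vacuum filtration over polyethylenimine-pretreated filters was followed by radioactivity counting.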

| Compound | Ki |
| --- | --- |
| C[C@@H]1CN(c2ncc(C(F)(F)F)cn2)CCN1C(=O)NC1CC2(C1)CN(Cc1ccc(Cl)cc1)C2 [Compound 257, (2R)-N-{2-[(4-chlorophenyl)methyl]-2-azaspiro[3.3]heptan-6-yl}-2-methyl-4-[5-(trifluoromethyl)pyrimidin-2-yl]piperazine-1-carboxamide] | 100 to 1000 nM |
| C[C@@H]1CN(c2cnc(C(F)(F)F)cn2)C[C@@H](C)N1C(=O)NC1CC2(C1)CN(Cc1ccc(Cl)cc1)C2 [Compound 259, (2R,6R)-N-{2-[(4-chlorophenyl)methyl]-2-azaspiro[3.3]heptan-6-yl}-2,6-dimethyl-4-[5-(trifluoromethyl)pyrazin-2-yl]piperazine-1-carboxamide] | 100 to 1000 nM |
| C[C@@H]1CN(c2cnc(C(F)(F)F)cn2)[C@@H](C)CN1C(=O)NC1CC2(C1)CN(Cc1ccc(Cl)cc1)C2 [Compound 260, (2R,5S)-N-{2-[(4-chlorophenyl)methyl]-2-azaspiro[3.3]heptan-6-yl}-2,5-dimethyl-4-[5-(trifluoromethyl)pyrazin-2-yl]piperazine-1-carboxamide] | 10 to 100 nM |
| C[C@@H]1CN(c2cnc(C(F)(F)F)cn2)CCN1C(=O)NC1CC2(C1)CN(Cc1ccc(Cl)cc1)C2 [Compound 261, (2R)-N-{2-[(4-chlorophenyl)methyl]-2-azaspiro[3.3]heptan-6-yl}-2-methyl-4-[5-(trifluoromethyl)pyrazin-2-yl]piperazine-1-carboxamide] | 10 to 100 nM |
| C[C@@H]1CN(c2ncc(C(F)(F)F)cn2)[C@@H](C)CN1C(=O)NC1CC2(C1)CN(Cc1ccc(F)cc1)C2 [Compound 265, (2R,5S)-N-{2-[(4-fluorophenyl)methyl]-2-azaspiro[3.3]heptan-6-yl}-2,5-dimethyl-4-[5-(trifluoromethyl)pyrimidin-2-yl]piperazine-1-carboxamide] | 10 to 100 nM |
| C[C@@H]1CN(c2ncc(C(F)(F)F)cn2)CCN1C(=O)NC1CC2(C1)CN(Cc1ccc(F)cc1)C2 [Compound 266, (2R)-N-{2-[(4-fluorophenyl)methyl]-2-azaspiro[3.3]heptan-6-yl}-2-methyl-4-[5-(trifluoromethyl)pyrimidin-2-yl]piperazine-1-carboxamide] | 100 to 1000 nM |
| C[C@@H]1CN(c2cnc(C(F)(F)F)cn2)C[C@H](C)N1C(=O)NC1CC2(C1)CN(Cc1ccc(F)cc1)C2 [Compound 267, (2R,6S)-N-{2-[(4-fluorophenyl)methyl]-2-azaspiro[3.3]heptan-6-yl}-2,6-dimethyl-4-[5-(trifluoromethyl)pyrazin-2-yl]piperazine-1-carboxamide] | 10 to 100 nM |
| C[C@@H]1CN(c2cnc(C(F)(F)F)cn2)[C@@H](C)CN1C(=O)NC1CC2(C1)CN(Cc1ccc(F)cc1)C2 [Compound 269, (2R,5S)-N-{2-[(4-fluorophenyl)methyl]-2-azaspiro[3.3]heptan-6-yl}-2,5-dimethyl-4-[5-(trifluoromethyl)pyrazin-2-yl]piperazine-1-carboxamide] | 10 to 100 nM |
| C[C@@H]1CN(c2cnc(C(F)(F)F)cn2)CCN1C(=O)NC1CC2(C1)CN(Cc1ccc(F)cc1)C2 [Compound 270, (2R)-N-{2-[(4-fluorophenyl)methyl]-2-azaspiro[3.3]heptan-6-yl}-2-methyl-4-[5-(trifluoromethyl)pyrazin-2-yl]piperazine-1-carboxamide] | 10 to 100 nM |
| [2H]c1c([2H])c([2H])c(CN2CC3(CC(NC(=O)N4[C@H](C)CN(c5ncc(C(F)(F)F)cn5)C[C@@H]4C)C3)C2)c([2H])c1[2H] [Compound 273, (2R,6S)-N-{2-[(^2H5)benzyl]-2-azaspiro[3.3]heptan-6-yl}-2,6-dimethyl-4-[5-(trifluoromethyl)pyrimidin-2-yl]piperazine-1-carboxamide] | < 10 nM |
| [2H]c1c([2H])c([2H])c(C([2H])N2CC3(CC(NC(=O)N4[C@H](C)CN(c5ncc(C(F)(F)F)cn5)C[C@@H]4C)C3)C2)c([2H])c1[2H] (stereo partly drawn) [Compound 274, (2R,6S)-2,6-dimethyl-N-{2-[(^2H5)phenyl(^2H1)methyl]-2-azaspiro[3.3]heptan-6-yl}-4-[5-(trifluoromethyl)pyrimidin-2-yl]piperazine-1-carboxamide] | < 10 nM |
| [2H]c1c([2H])c([2H])c(C([2H])([2H])N2CC3(CC(NC(=O)N4[C@H](C)CN(c5ncc(C(F)(F)F)cn5)C[C@@H]4C)C3)C2)c([2H])c1[2H] [Compound 275, (2R,6S)-2,6-dimethyl-N-{2-[(^2H5)phenyl(^2H2)methyl]-2-azaspiro[3.3]heptan-6-yl}-4-[5-(trifluoromethyl)pyrimidin-2-yl]piperazine-1-carboxamide] | < 10 nM |
| C[C@@H]1CN(c2ncc(C(F)(F)F)cc2F)C[C@H](C)N1C(=O)OC1CC2(C1)CN(Cc1ccccc1)C2 [Compound 277, 2-benzyl-2-azaspiro[3.3]heptan-6-yl (2R,6S)-4-[3-fluoro-5-(trifluoromethyl)pyridin-2-yl]-2,6-dimethylpiperazine-1-carboxylate] | < 10 nM |
| C[C@@H]1CN(c2ncc(Cl)cn2)C[C@H](C)N1C(=O)OC1CC2(C1)CN(Cc1ccccc1)C2 [Compound 278, 2-benzyl-2-azaspiro[3.3]heptan-6-yl (2R,6S)-4-(5-chloropyrimidin-2-yl)-2,6-dimethylpiperazine-1-carboxylate] | 10 to 100 nM |
| Cc1nc(N2C[C@@H](C)N(C(=O)OC3CC4(C3)CN(Cc3ccccc3)C4)[C@@H](C)C2)ncc1Cl [Compound 279, 2-benzyl-2-azaspiro[3.3]heptan-6-yl (2R,6S)-4-(5-chloro-4-methylpyrimidin-2-yl)-2,6-dimethylpiperazine-1-carboxylate] | 10 to 100 nM |
| CCOc1ccc(N2C[C@@H](C)N(C(=O)NC3CC4(C3)CN(Cc3ccccc3)C4)[C@@H](C)C2)cc1 [Compound 284, (2R,6S)-N-{2-benzyl-2-azaspiro[3.3]heptan-6-yl}-4-(4-ethoxyphenyl)-2,6-dimethylpiperazine-1-carboxamide] | 100 to 1000 nM |
| C[C@@H]1CN(c2ncc(C(F)(F)F)cn2)C[C@H](C)N1C(=O)NC1CC2(C1)CN(Cc1cccnc1Cl)C2 [Compound 291, (2R,6S)-N-{2-[(2-chloropyridin-3-yl)methyl]-2-azaspiro[3.3]heptan-6-yl}-2,6-dimethyl-4-[5-(trifluoromethyl)pyrimidin-2-yl]piperazine-1-carboxamide] | 100 to 1000 nM |
| C[C@@H]1CN(c2ncc(C(F)(F)F)cn2)C[C@H](C)N1C(=O)NC1CC2(C1)CN(Cc1ccc3occc3c1)C2 [Compound 298, (2R,6S)-N-[2-(1-benzofuran-5-ylmethyl)-2-azaspiro[3.3]heptan-6-yl]-2,6-dimethyl-4-[5-(trifluoromethyl)pyrimidin-2-yl]piperazine-1-carboxamide] | < 10 nM |
| C[C@@H]1CN(c2ncc(C(F)(F)F)cn2)C[C@H](C)N1C(=O)NC1CC2(C1)CN(Cc1cccnc1)C2 [Compound 303, (2R,6S)-2,6-dimethyl-N-[2-(pyridin-3-ylmethyl)-2-azaspiro[3.3]heptan-6-yl]-4-[5-(trifluoromethyl)pyrimidin-2-yl]piperazine-1-carboxamide] | 10 to 100 nM |
| COc1ccc(CN2CC3(CC(NC(=O)N4[C@H](C)CN(c5ncc(C(F)(F)F)cn5)C[C@@H]4C)C3)C2)cn1 [Compound 305, (2R,6S)-N-{2-[(6-methoxypyridin-3-yl)methyl]-2-azaspiro[3.3]heptan-6-yl}-2,6-dimethyl-4-[5-(trifluoromethyl)pyrimidin-2-yl]piperazine-1-carboxamide] | 10 to 100 nM |
| C[C@@H]1CN(c2ncc(C(F)(F)F)cn2)C[C@H](C)N1C(=O)NC1CC2(C1)CN(Cc1ccc(Cl)nc1)C2 [Compound 307, (2R,6S)-N-{2-[(6-chloropyridin-3-yl)methyl]-2-azaspiro[3.3]heptan-6-yl}-2,6-dimethyl-4-[5-(trifluoromethyl)pyrimidin-2-yl]piperazine-1-carboxamide] | 10 to 100 nM |
| C[C@@H]1CN(c2ncc(C(F)(F)F)cn2)C[C@H](C)N1C(=O)NC1CC2(C1)CN(Cc1ccc[nH]1)C2 [Compound 309, (2R,6S)-2,6-dimethyl-N-[2-(1H-pyrrol-2-ylmethyl)-2-azaspiro[3.3]heptan-6-yl]-4-[5-(trifluoromethyl)pyrimidin-2-yl]piperazine-1-carboxamide] | 10 to 100 nM |
| C[C@@H]1CN(c2ncc(C(F)(F)F)cn2)C[C@H](C)N1C(=O)NC1CC2(C1)CN(CCc1ccccc1)C2 [Compound 311, (2R,6S)-2,6-dimethyl-N-[2-(2-phenylethyl)-2-azaspiro[3.3]heptan-6-yl]-4-[5-(trifluoromethyl)pyrimidin-2-yl]piperazine-1-carboxamide] | 100 to 1000 nM |
| C[C@@H]1CN(c2ncc(C(F)(F)F)cn2)C[C@H](C)N1C(=O)NC1CC2(C1)CN(CCCCc1ccccc1)C2 [Compound 312, (2R,6S)-2,6-dimethyl-N-[2-(4-phenylbutyl)-2-azaspiro[3.3]heptan-6-yl]-4-[5-(trifluoromethyl)pyrimidin-2-yl]piperazine-1-carboxamide] | 100 to 1000 nM |
| C[C@@H]1CN(c2ncc(C(F)(F)F)cn2)C[C@H](C)N1C(=O)NC1CC2(C1)CN(CC1=CCCCC1)C2 [Compound 313, (2R,6S)-N-[2-(cyclohex-1-en-1-ylmethyl)-2-azaspiro[3.3]heptan-6-yl]-2,6-dimethyl-4-[5-(trifluoromethyl)pyrimidin-2-yl]piperazine-1-carboxamide] | 10 to 100 nM |
